Test results from patent US20250136593A1, “DEGRADATION AGENT AND USE THEREOF” (HITGEN INC., priority 2021, published 2025).

What was measured:
[1] = target: T1, BCL-XL protein in MOLT-4 cells (Homo sapiens, UniProt Q07817); experiment: Degradation effect on BCL-XL protein in MOLT-4 cells by Western Blot; assay type: cell-based; conditions: 24 hours incubation, corrected by β-actin, read-out: DC50 concentration for BCL-XL protein degradation
T1 construct: host or cells: MOLT-4
Method: Experimental Example 6. Experiment to Evaluate Degradation Effect of Compound on BCL-XL Protein in MOLT-4 Cells by Western Blot Method
SDS-PAGE gel (4-12%) (Genscript), PMSF 100 mM (Biyotime), Cocktail 100× (Biyotime), P/S, RPMI medium modified (Hyclone), FBS (Corning), 4× loading buffer (Thermo), Bcl-xL (54H6) Rabbit mAb (CST), Anti-rabbit IgG-HRP (CST), Anti-β-actin-HRP (Abcam), RIPA (Biyotime), Tween-20, MOLT-4 cell (ATCC), BCA Protein Assay Kit (TIANGEN), Immobilon Western Chemilunescent HRP Substrate (Millipore).
1) Incubation of compound and cells: 1 mL of 10^6 MOLT-4 cells (culture medium: 89% RPMI, 10% FBS, 1% P/S) was inoculated in a 6-well cell culture plate, the compound was subjected to gradient dilution with DMSO, then the compound diluted in DMSO in gradient was diluted again into the MOLT-4 medium, and 1 mL of the diluted compound was directly added to the 6-well plate with the cultured cells and incubated for 24 hours.
2) Protein extraction: After the compound and the cells were co-incubated for 24 hours, the cells were collected and placed in a 1.5 mL centrifuge tube, washed twice with ice-cold PBS, the supernatant was discarded, then 150 μL of RIPA lysis buffer was added and lysis was carried out on ice for 30 minutes; then the cell lysate was centrifuged in a low-temperature centrifuge at 15,000 rpm for 10 minutes, and the supernatant was collected; and BCA Protein Assay Kit was used to quantify the protein in the resulting cell lysate supernatant. 4× loading buffer was added to the cell lysate supernatant and incubated at 85° C. for 10 minutes to obtain a sample. The obtained sample was stored in −80° C. refrigerator for the use on the next day. 20 μg of the sample was taken to perform SDS-Page and transmembrane, 5% skim milk was used to block the membrane for 1 hour, and then Bcl-xL (54H6) rabbit mAb, Anti-rabbit IgG-HRP, Anti-β-actin-HRP were used for incubation. After incubation, Immobilon Western Chemiluminescent HRP Substrate was used for color development, and a gel analyzer was used for analysis.
Analysis was performed with a grayscale analysis software, the amount of BCL-XL protein was corrected by the amount of β-actin, and then Graphpad 6 was used to calculate DC50.

MOLT-4 cells = experiment: Inhibitory activity on MOLT4 cell proliferation by Cell Titer-Glo method; assay type: cell-based; conditions: Homo sapiens, 72 hours incubation, read-out: IC50 concentration for inhibiting MOLT-4 cells
Method: Experimental Example 5, Evaluation Experiment of Inhibitory Activity of Compound on MOLT4 Cell Proliferation by Cell Titer-Glo Method
RPMI medium modified (Hyclone), FBS (Corning), Dimethyl Sulfoxide, P/S, CellTiter-Gbo Luminescent Cell Viability Assay (Promega), MOLT-4 cell (ATCC).
MOLT-4 cells were cultured in monolayer in vitro in an incubator containing 5% CO2 air at 37° C. The culture medium was RPMI 1640 with 10% FBS and 1% P/S. 15 μL of MOLT4 cells, containing 5×10^4 cells per ml, was inoculated to a 384-well plate (Corning, 3707), 750 cells/well, and incubated at 37° C. and 5% CO2 for 30 minutes. Then the compound that had been diluted in advance was added, with a total of 9 concentration points, and 2 parallel repetitions for each concentration point. The cell growing group without adding the compound was used as a negative control (maximum signal control), and the culture medium group was used as a blank control (minimum signal control). At the same time, it was ensured that the final DMSO content in each reaction well was 0.1%. The compound and the cells were incubated in a cell culture incubator at 37° C., 5% CO2 for 3 days (72 hours).
The 384-well plate was taken out from the cell culture incubator and allowed to stand at room temperature, equilibrated for 20 to 30 minutes, and then 25 μl of Cell Titer-Glo detection reagent was added to each reaction well, lysed on a shaker for 2 minutes, incubated for 10 minutes, and BMG PHERAStar (Luminescence) was used for reading.
The inhibition rate was calculated based on the luminescence signals: the average value of the negative control (maximum signal control) and the blank control (minimum signal control) was first calculated, then the inhibition rates of the compound at different concentrations for the cells were calculated as follows:
The IC50 of the compound to inhibit cell activity was calculated by fitting with GraphPad Prism 6 using log(inhibitor) vs. response−Variable slope mode. The fitting equation was: Y=Bottom+(Top−Bottom)/(1+10^((LogIC50−X)*HillSlope)), wherein Y represented the inhibition rate and X represented the known compound concentration after Log.

[2] = target: ternary complex between BCL-XL and CRBN-DDB1 (Homo sapiens, UniProt Q07817+Q96SW2); experiment: Compound-induced formation of ternary complex between BCL-XL and CRBN-DDB1 by AlphaLISA; assay type: biochemical; set-up: key: the number of + indicates the intensity of AlphaLISA peak signal; ++: the number of + indicates the intensity of AlphaLISA peak signal; +++: the number of + indicates the intensity of AlphaLISA peak signal; ++++: the number of + indicates the intensity of AlphaLISA peak signal; +++++: the number of + indicates the intensity of AlphaLISA peak signal; conditions: peak signal; 60 nM Strep-BCL-XL and 60 nM His-CRBN/DDB1
Method: Experimental Example 4, Detection of Compound-Induced Formation of Ternary Complex Between BCL-XL and CRBN-DDB1 by AlphaLISA Method
Na2HPO4(Sigma), NaH2PO4(Sigma), sodium chloride (Sigma), Tween-20 (Sigma), AlphaLISA®Nikel Chelate Acceptor beads (PerkinElmer), Strep-Tactin® Alpha Donor beads (PerkinElmer), Assay plate (Corning), Strep-BCl-XL (HitGen), His-CRBN/DDB1 (HitGen).
DMSO was used to dissolve the dry powder of the test compound to obtain a 10.00 mM solution. The instrument ECHO was used to perform gradient dilution of the compound, which was then added to a 384-well reaction plate (Corning, Cat #3824), so that the final concentration of DMSO in the entire reaction system (10.0 μL) was less than 1%, and the same amount of DMSO was added and used as a control.
Strep-BCl-XL and His-CRBN/DDB1 proteins were dissolved in buffer (10 mM NaH2PO4, 40 mM Na2HPO4, 150 mM sodium chloride, 0.03% Tween20, pH=7.4) to obtain a protein mixture of 60 nM Strep-BCL-XL and 60 nM His-CRBN/DDB1, the protein mixture (5ul/well) was added to the 384-well plate in which the compound had been added, and incubated at room temperature for 30 minutes, then 5 μl of a detection mixture with 50 μg/ml AlphaLISA®Nikel Chelate Acceptor beads and 50 μg/ml Strep-Tactin® Alpha Donor beads was added, and incubated at room temperature for 2 hours; and then a microplate reader was used to detect AlphaLISA signal.
Fifth order polynomial or Sixth order polynomial in Polynomial of Graphpad 6.0 was used for data fitting.

T1 sequence (Q07817 whole entry): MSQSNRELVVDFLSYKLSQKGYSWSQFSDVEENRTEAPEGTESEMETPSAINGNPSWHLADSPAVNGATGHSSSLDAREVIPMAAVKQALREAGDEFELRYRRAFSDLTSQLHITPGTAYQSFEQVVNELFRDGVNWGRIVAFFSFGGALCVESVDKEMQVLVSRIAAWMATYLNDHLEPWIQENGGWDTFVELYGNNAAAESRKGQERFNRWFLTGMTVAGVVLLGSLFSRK
Chain of ternary complex between BCL-XL and CRBN-DDB1 (Q07817 whole entry): as above
Chain of ternary complex between BCL-XL and CRBN-DDB1 (Q96SW2 whole entry): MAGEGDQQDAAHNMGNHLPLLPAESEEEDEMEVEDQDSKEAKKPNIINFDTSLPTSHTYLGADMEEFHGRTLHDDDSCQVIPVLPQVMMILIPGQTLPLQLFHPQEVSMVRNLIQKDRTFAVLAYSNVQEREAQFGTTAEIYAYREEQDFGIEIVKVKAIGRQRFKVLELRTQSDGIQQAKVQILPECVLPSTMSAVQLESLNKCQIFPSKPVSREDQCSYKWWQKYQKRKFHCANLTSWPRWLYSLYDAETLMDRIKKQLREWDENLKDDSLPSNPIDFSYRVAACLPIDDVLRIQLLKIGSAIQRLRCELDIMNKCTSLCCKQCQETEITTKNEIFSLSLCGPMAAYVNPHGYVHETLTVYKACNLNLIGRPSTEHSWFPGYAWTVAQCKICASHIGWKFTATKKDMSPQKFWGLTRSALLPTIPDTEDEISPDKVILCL
Chain of ternary complex between BCL-XL and CRBN-DDB1 (Q16531 whole entry partner): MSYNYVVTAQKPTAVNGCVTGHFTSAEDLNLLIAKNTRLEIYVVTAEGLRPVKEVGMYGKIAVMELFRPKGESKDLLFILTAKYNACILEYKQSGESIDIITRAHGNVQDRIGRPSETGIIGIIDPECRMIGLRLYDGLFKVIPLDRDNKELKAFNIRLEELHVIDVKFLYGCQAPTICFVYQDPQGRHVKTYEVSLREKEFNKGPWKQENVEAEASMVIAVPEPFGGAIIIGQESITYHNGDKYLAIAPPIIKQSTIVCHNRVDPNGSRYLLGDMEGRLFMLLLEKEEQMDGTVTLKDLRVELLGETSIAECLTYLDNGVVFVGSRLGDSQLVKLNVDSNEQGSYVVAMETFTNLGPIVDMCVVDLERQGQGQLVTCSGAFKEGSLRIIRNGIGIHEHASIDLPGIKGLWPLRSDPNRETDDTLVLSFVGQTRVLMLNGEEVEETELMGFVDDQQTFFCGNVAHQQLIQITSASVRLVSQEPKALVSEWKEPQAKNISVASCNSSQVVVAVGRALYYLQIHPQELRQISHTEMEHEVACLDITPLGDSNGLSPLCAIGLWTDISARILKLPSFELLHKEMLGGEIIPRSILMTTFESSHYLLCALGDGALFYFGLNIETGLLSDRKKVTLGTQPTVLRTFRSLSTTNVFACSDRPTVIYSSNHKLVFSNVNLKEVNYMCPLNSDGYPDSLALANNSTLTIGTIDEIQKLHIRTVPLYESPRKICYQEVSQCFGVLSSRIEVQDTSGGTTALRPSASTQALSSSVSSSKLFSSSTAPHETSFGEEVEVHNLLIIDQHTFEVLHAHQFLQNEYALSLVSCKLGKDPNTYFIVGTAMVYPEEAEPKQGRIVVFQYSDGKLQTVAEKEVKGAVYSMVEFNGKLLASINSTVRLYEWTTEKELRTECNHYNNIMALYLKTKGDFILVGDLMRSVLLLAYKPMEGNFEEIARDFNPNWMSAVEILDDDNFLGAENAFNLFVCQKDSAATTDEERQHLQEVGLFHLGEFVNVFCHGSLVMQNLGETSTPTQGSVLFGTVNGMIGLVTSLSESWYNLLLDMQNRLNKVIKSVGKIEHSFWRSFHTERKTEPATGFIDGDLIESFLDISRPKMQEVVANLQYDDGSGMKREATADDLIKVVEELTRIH

DC50 [1] [nM]	IC50 (MOLT-4 cells) [µM]	AlphaLISA signal (PROTAC ternary complex signal intensity) [2]	Compound
< 1000	1 to 10	++	O=C1CCC(N2Cc3c(CN4CC5(C4)CN(C4CCN(CC#Cc6ccc(/C=C/c7ccc(C(=O)N8CCc9cnc(-c%10cnc%11ccccc%11c%10)nc9C8)cc7)cc6)CC4)C5)cccc3C2=O)C(=O)N1 (stereo not drawn) [Compound F3B-3]
1000 to 10000	< 1		CNc1nc(-c2cnc3ccccc3c2)nc2c1CCN(C(=O)c1ccc(/C=C/c3ccc(C#CCN4CCN(CCC#Cc5cccc(C6CCC(=O)NC6=O)c5)CC4)cc3)cc1)C2 (stereo not drawn) [Compound D2-15]
	50 to 100	++++	C=Cc1cc(-c2nc3c(c(NC)n2)CCN(C(=O)c2ccc(COc4ccc(C#CCN5CCN(CCCCCCOc6cccc7c6C(=O)N(C6CCC(=O)NC6=O)C7=O)CC5)cc4)cc2)C3)cnc1C=C (stereo not drawn) [Compound C3-17]
1000 to 10000	50 to 100		O=C1CCC(N2Cc3cc(N4CCC(CN5CCN(CC#Cc6ccc(OCC78CC(C(=O)N9CCc%10cnc(-c%11cnc%12ccccc%12c%11)nc%10C9)(C7)C8)cc6)CC5)CC4)ccc3C2=O)C(=O)N1 (stereo not drawn) [Compound F2-9]
< 1000	< 1		CNc1nc(-c2cnc3ccccc3c2)nc2c1CCN(C(=O)c1ccc(/C=C/c3ccc(C#CCN4CCN(CCC#Cc5cccc(N6CCC(=O)NC6=O)c5)CC4)cc3)cc1)C2 [Compound H1-1]
< 1000	1 to 10		CNc1nc(-c2cnc3ccccc3c2)nc2c1CCN(C(=O)c1ccc(/C=C/c3ccc(C#CCN4CCN(CC5CCN(c6ccc7c(c6)CN(C6CCC(=O)NC6=O)C7=O)CC5)CC4)cc3)cc1)C2 (stereo not drawn) [Compound F2-8]
	100 to 200	+	C=Cc1cc(-c2ncc3c(n2)CN(C(=O)c2ccc(/C=C/c4ccc(C#CCN5CCN(CCCCCOc6cccc7c6C(=O)N(C6CCC(=O)NC6=O)C7=O)CC5)cc4)cc2)CC3)cnc1C=C (stereo not drawn) [Compound C3-2]
	50 to 100	++++	C=Cc1cc(-c2nc3c(c(NC)n2)CCN(C(=O)c2ccc(COc4ccc(C#CCN5CCN(CCCCCOc6cccc7c6C(=O)N(C6CCC(=O)NC6=O)C7=O)CC5)cc4)cc2)C3)cnc1C=C (stereo not drawn) [Compound C3-16]
	50 to 100	++	O=C1CCC(N2Cc3c(OC4CC5(C4)CN(C4CCN(CC#Cc6ccc(/C=C/c7ccc(C(=O)N8CCc9cnc(-c%10cnc%11ccccc%11c%10)nc9C8)cc7)cc6)CC4)C5)cccc3C2=O)C(=O)N1 (stereo not drawn) [Compound F3B-2]
	50 to 100	+	C=Cc1cc(-c2nc3c(c(NC)n2)CCN(C(=O)c2ccc(/C=C/c4ccc(C#CCN5CCN(CCCCCOc6cccc7c6C(=O)N(C6CCC(=O)NC6=O)C7=O)CC5)cc4)cc2)C3)cnc1C=C (stereo not drawn) [Compound C3-6]
	100 to 200	++	CNc1nc(-c2cnc3ccccc3c2)nc2c1CCN(C(=O)c1ccc(/C=C/c3ccc(C#CCN4CCN(CCCC#Cc5cccc6c5CN(C5CCC(=O)NC5=O)C6=O)CC4)cc3)cc1)C2 (stereo not drawn) [Compound D2-6]
	100 to 200	+++++	C=Cc1cc(-c2nc3c(c(NC)n2)CCN(C(=O)c2ccc(COc4ccc(C#CCN5CCN(CCCCCNc6cccc7c6C(=O)N(C6CCC(=O)NC6=O)C7=O)CC5)cc4)cc2)C3)cnc1C=C (stereo not drawn) [Compound C2-3]
1000 to 10000	50 to 100		CNc1nc(-c2cnc3ccccc3c2)nc2c1CCN(C(=O)c1ccc(/C=C/c3ccc(C#CCN4CCN(CC5CCN(c6ccc7c(c6)C(=O)N(C6CCC(=O)NC6=O)C7=O)CC5)CC4)cc3)cc1)C2 (stereo not drawn) [Compound F2-11]
	50 to 100	++++	C=Cc1cc(-c2nc3c(c(NC)n2)CCN(C(=O)c2ccc(COc4ccc(C#CCN5CCN(CCCCNc6cccc7c6C(=O)N(C6CCC(=O)NC6=O)C7=O)CC5)cc4)cc2)C3)cnc1C=C (stereo not drawn) [Compound C2-2]
1000 to 10000	50 to 100		CNc1nc(-c2cnc3ccccc3c2)nc2c1CCN(C(=O)c1ccc(/C=C/c3ccc(C#CCN4CCC(CN5CCN(c6cc7c(cc6F)C(=O)N(C6CCC(=O)NC6=O)C7=O)CC5)CC4)cc3)cc1)C2 (stereo not drawn) [Compound F1B-3]
	> 200	++	CNc1nc(-c2cnc3ccccc3c2)nc2c1CCN(C(=O)c1ccc(/C=C/c3ccc(C#CCN4CCN(C(=O)CC(=O)N[C@H](C(=O)N5C[C@H](O)C[C@H]5C(=O)N[C@@H](C)c5ccc(-c6scnc6C)cc5)C(C)(C)C)CC4)cc3)cc1)C2 [Compound G2-1]
	100 to 200	++	C/C=c1/cc(-c2nc3c(c(NC)n2)CCN(C(=O)c2ccc(/C=C/c4ccc(C#CCN5CCN(CCCCCOc6cccc7c6CN(C6CCC(=O)NC6=O)C7=O)CC5)cc4)cc2)C3)cn/c1=C/C (stereo not drawn) [Compound C3-5]
	> 200	++	CNc1nc(-c2cnc3ccccc3c2)nc2c1CCN(C(=O)c1ccc(/C=C/c3ccc(C#CCN4CCN(CCCCCC(=O)N[C@H](C(=O)N5C[C@H](O)C[C@H]5C(=O)NCc5ccc(-c6scnc6C)cc5)C(C)(C)C)CC4)cc3)cc1)C2 [Compound G1-5]
	100 to 200	+	C/C=c1/cc(-c2ncc3c(n2)CN(C(=O)c2ccc(/C=C/c4ccc(C#CCN5CCN(CCCCCOc6cccc7c6CN(C6CCC(=O)NC6=O)C7=O)CC5)cc4)cc2)CC3)cn/c1=C/C (stereo not drawn) [Compound C3-4]
